# Laboratory results from patent US6323195A, “Galanthamine derivatives as acetylcholinesterase inhibitors” (priority 1993, dated 2001).
# Structures can show the parent of a compound that is named as a salt.
# Legend:
# acetylcholinesterase = acetylcholinesterase (Homo sapiens, UniProt P22303); experiment: Acetylcholinesterase Inhibition Assay (photometric method of Ellman et al.); assay type: biochemical
# mice = assay type: in vivo; settings: SDDA Dose 0.003 mg/kg, s.c., retest after 24 hours
# Method: This utility can also be ascertained by determining the ability of these compounds to restore cholinergically deficient memory in the Dark Avoidance Assay. In this assay mice are tested for their ability to remember an unpleasant stimulus for a period of 24 hours. A mouse is placed in a chamber that contains a dark compartment; a strong incandescent light drives it to the dark compartment, where an electric shock is administered through metal plates on the floor. The animal is removed from the testing apparatus and tested again, 24 hours later, for the ability to remember the electric shock.
# If scopolamine, an anticholinergic that is known to cause memory impairment, is administered before an animal's initial exposure to the test chamber, the animal re-enters the dark compartment shortly after being placed in the test chamber 24 hours later. This effect of scopolamine is blocked by an active test compounds, resulting in a greater interval before reentry into the dark compartment.
# The test results are expressed as the percent of a group of animals in which the effect of scopolamine is blocked, as manifested by an increased interval between being placed in the test chamber and reentering the dark compartment. Results of Dark Avoidance Assay for some of the compounds of this invention are presented in Table II along with a result for a reference compounds.
# Chain of acetylcholinesterase (P22303 32-614): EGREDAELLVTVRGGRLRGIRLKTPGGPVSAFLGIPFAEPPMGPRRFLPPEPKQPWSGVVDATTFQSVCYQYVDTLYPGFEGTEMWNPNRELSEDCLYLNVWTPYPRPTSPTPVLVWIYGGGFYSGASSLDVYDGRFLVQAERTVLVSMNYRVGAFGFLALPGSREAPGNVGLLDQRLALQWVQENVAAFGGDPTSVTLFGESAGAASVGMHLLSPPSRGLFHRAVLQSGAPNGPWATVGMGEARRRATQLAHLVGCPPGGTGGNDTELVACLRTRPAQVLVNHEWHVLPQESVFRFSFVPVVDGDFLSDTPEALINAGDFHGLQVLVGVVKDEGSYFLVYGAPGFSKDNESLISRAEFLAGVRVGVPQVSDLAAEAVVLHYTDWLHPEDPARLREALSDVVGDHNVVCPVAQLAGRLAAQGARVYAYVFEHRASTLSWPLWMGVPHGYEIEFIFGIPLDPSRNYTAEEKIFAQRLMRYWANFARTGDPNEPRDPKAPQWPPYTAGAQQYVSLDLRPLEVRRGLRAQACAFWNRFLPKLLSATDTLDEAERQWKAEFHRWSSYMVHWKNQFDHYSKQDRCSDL
compound,measurement,setting,value
"CN1CC[C@@]23C=C[C@H](O)C[C@@H]2Oc2c(OC(=O)N4CCc5ccccc5C4)ccc(c23)C1 [Example 2, (6-O-Demethyl)-6-O-(1,2,3,4-tetrahydroisoquinolin-2-yl)carbonyl]-galanthamine hydrochloride]",IC50,acetylcholinesterase,0.9 nM
same,Percent of Animals with Scopolamine Induced Memory Deficit Reversal,mice,27% of Animals
